According to US6277861A, “Anti-convulsant isoquinolyl-benzamide derivatives” (SmithKline Beecham, p.l.c., priority 1997, dated 2001):
Structures can show the parent of a compound that is named as a salt.

Columns and labels:
[1] = tested on: maximal electroshock seizure threshold; assay: Maximal electroshock seizure (MEST) threshold test, mouse model; type: in vivo, mice; settings: 10 mg/kg p.o. at 2 h
Experimental: The maximal electroshock seizure (MEST) threshold test in rodents is particularly sensitive for detecting potential anticonvulsant properties^1. In this model, anticonvulsant agents elevate the threshold to electrically-induced seizures whilst proconvulsants lower the seizure threshold.
Mice (naive male, Charles River, U.K. CD-1 strain, 25-30 g) are randomly assigned to groups of 10-20 and dosed orally or intraperitoneally at a dose volume of 10 ml/kg with various doses of compound (0.3-300 mg/kg) or vehicle. […] The mean current and standard error required to induce a tonic seizure in 50% (CC50) of the mice in a particular treatment group is determined by the `up and down` method of Dixon and Mood (1948)^2. Statistical comparisons between vehicle- and drug-treated groups are made using the method of Litchfield and Wilcoxon (1949)^3.
In control animals the CC50 is usually 14-18 mA. […] If a tonic convulsion does occur, then the current is decreased, and so on until all the animals in the group have been tested.
Studies are carried out using a Hugo Sachs Electronik Constant Current Shock Generator with totally variable control of shock level from 0 to 300 mA and steps of 2 mA are usually used.

[2] = molecular target: novel receptor obtainable from rat forebrain tissue ([3H]-Compound A binding site); assay: Radioligand binding assay, displacement of [3H]-Compound A from rat forebrain tissue; settings: competition with [3H]-Compound A, Table
Experimental: WO 92/22293 (SmithKline Beecham) discloses compounds having anti-convulsantactivity, including inter alia the compound trans-(+)-6-acetyl-4S-(4-fluorobenzoylamino)-3,4-dihydro-2,2-dimethyl-2H-1-benzopyran-3R-ol (hereinafter referred to as Compound A). […] The affinity of test compounds to the novel receptor site is assessed as follows. Whole forebrain tissue is obtained from rats. The tissue is first homogenised in buffer (usually 50 mM Tris/HCl, pH 7.4). The homogenised tissue is washed by centrifugation and resuspension in the same buffer, then stored at -70° C. until used. To carry out the radioligand binding assay, aliquots of tissue prepared as above (usually at a concentration of 1-2 mg protein/ml) are mixed with aliquots of [3H]-Compound A dissolved in buffer. The final concentration of [3H]-Compound A in the mixture is usually 20 nM. The mixture is incubated at room temperature for 1 hour. [3H]-Compound A bound to the tissue is then separated from unbound [3H]-Compound A by filtration through Whatman GF/B glass fibre filters. The filters are then washed rapidly with ice-cold buffer. The amount of radioactivity bound to the tissue trapped on the filters is measured by addition of liquid scintillation cocktail to the filters followed by counting in a liquid scintillation counter. In order to determine the amount of "specific" binding of [3H]-Compound A, parallel assays are carried out as above in which [3H]-Compound A and tissue are incubated together in the presence of unlabelled Compound A (usually 3 μM). The amount of binding of [3H]-Compound A remaining in the presence of this unlabelled compound is defined as "non-specific" binding. This amount is subtracted from the total amount of [3H]-Compound A binding (i.e. that present in the absence of unlabelled compound) to obtain the amount of "specific" binding of [3H]-Compound A to the novel site. The affinity of the binding of test compounds to the novel site can be estimated by incubating together [3H]-Compound A and tissue in the presence of a range of concentrations of the compound to be tested. The decrease in the level of specific [3H]-Compound A binding as a result of competition by increasing concentrations of the compound under test is plotted graphically, and non-linear regression analysis of the resultant curve is used to provide an estimate of compound affinity in terms of pKi value.

[3] = tested on: maximal electroshock seizure threshold; assay: Maximal electroshock seizure (MEST) threshold test, rat model; type: in vivo, rats; settings: percentage increase in CC50 compared to the control, suspended in 1% methyl cellulose
Experimental: The maximal electroshock seizure (MEST) threshold test in rodents is particularly sensitive for detecting potential anticonvulsant properties^1. In this model, anticonvulsant agents elevate the threshold to electrically-induced seizures whilst proconvulsants lower the seizure threshold. The threshold for maximal (tonic hindlimb extension) electroshock seizures in male rats (Sprague Dawley, 80-150 g, 6 weeks old) was determined by a Hugo Sachs Electronik stimulator which delivered a constant current (0.3 sec duration; from 1-300 mA in steps of 5-20 mA). The procedure is similar to that outlined above for mouse and full details are as published by Upton et al,.^4 The percentage increase or decrease in CC50 for each group compared to the control is calculated. Drugs are suspended in 1% methyl cellulose.

Compound	percentage increases in seizure threshold [1]	pKI Compound A [2]	Rat MEST at 2 mg/kg p.o at 2h (increases) [3]
COc1cc(OC(C)C)c(Cl)cc1C(=O)Nc1cccc2c1CCN(C)C2C (racemic) [Example 4, (±) N-(1,2-Dimethyl-1,2,3,4-tetrahydroisoquinolin-5-yl)-5-chloro-4-iso-propoxy-2-methoxybenzamide, hydrochloride]	47%	–	–
COc1cc(C(C)(C)C)ccc1C(=O)Nc1cccc2c1CCN(C)C2C (racemic) [Example 5, (±) N-(1,2-Dimethyl-1,2,3,4-tetrahydroisoquinolin-5-yl)-tert-butyl-2-methoxybenzamide, hydrochloride]	46%	–	–
COc1cc(C)c(C(F)(F)F)cc1C(=O)Nc1cccc2c1CCN(C)C2C (racemic) [Example 6, (±) N-(1,2-Dimethyl-1,2,3,4-tetrahydroisoquinolin-5-yl)-5-trifluoromethyl-2-methoxy-4-methyl benzamide, hydrochloride]	36%	–	–
COc1ccc(C(=O)Nc2ccc3c(c2)CN(C)CC3(C)C)cc1C(F)(F)F.Cl [Example 7, N-(2,4,4-Trimethyl-4H-isoquinolin-7-yl)-4-methoxy-3-trifluoromethylbenzamide, hydrochloride]	–	8.5	510
CC(C)c1ccc(C(=O)Nc2ccc3c(c2)CN(C)CC3(C)C)cc1C#N [Example 8, N-(2,4,4-Trimethyl-4H-isoquinolin-7-yl)-3-cyano-4-iso-propylbenzamide]	–	8.0	120
CCc1ccc(C(=O)Nc2ccc3c(c2)CN(C)CC3(C)C)cc1Br [Example 9, N-(2,4,4,-Trimethyl-4H-isoquinolin-7-yl)-3-bromo-4-ethylbenzamide]	–	8.3	53
CCOc1ccc(C(=O)Nc2ccc3c(c2)CN(C)CC3(C)C)cc1Br [Example 10, N-(2,4,4-Trimethyl-4H-isoquinolin-7-yl)-3-bromo-4-ethoxybenzamide]	–	8.2	294
CC(C)Oc1ccc(C(=O)Nc2ccc3c(c2)CN(C)CC3(C)C)cc1Cl [Example 11, N-(2,4,4-Trimethyl-4H-isoquinolin-7-yl)-3-chloro--4-iso-propoxybenzamide]	–	7.9	204
